Assay [1] concerns H1975 (EGFR T790M/L858R) cell proliferation. Put plainly: H1975 proliferation assay (Cell Titer-Glo). Format: cell-based. The conditions noted are these: Homo sapiens, NCI-H1975, 72 h, NCI-H1975 cells, 72 hour incubation, read-out: H1975 antiproliferative EC50. The protocol: H1975 Proliferation Assays
All cell culture reagents were purchased from Invitrogen/Gibco. Cells are cultured at 37° C. at 5% CO2 and split as recommended by ATCC.

For the next assay, the target named is T1, EGFR T790M L858R (Homo sapiens, UniProt P00533, L858R/T790M).
T1 construct: purchased Life Technologies PV4879
T1 sequence (P00533 25-1210 T790M/L858R): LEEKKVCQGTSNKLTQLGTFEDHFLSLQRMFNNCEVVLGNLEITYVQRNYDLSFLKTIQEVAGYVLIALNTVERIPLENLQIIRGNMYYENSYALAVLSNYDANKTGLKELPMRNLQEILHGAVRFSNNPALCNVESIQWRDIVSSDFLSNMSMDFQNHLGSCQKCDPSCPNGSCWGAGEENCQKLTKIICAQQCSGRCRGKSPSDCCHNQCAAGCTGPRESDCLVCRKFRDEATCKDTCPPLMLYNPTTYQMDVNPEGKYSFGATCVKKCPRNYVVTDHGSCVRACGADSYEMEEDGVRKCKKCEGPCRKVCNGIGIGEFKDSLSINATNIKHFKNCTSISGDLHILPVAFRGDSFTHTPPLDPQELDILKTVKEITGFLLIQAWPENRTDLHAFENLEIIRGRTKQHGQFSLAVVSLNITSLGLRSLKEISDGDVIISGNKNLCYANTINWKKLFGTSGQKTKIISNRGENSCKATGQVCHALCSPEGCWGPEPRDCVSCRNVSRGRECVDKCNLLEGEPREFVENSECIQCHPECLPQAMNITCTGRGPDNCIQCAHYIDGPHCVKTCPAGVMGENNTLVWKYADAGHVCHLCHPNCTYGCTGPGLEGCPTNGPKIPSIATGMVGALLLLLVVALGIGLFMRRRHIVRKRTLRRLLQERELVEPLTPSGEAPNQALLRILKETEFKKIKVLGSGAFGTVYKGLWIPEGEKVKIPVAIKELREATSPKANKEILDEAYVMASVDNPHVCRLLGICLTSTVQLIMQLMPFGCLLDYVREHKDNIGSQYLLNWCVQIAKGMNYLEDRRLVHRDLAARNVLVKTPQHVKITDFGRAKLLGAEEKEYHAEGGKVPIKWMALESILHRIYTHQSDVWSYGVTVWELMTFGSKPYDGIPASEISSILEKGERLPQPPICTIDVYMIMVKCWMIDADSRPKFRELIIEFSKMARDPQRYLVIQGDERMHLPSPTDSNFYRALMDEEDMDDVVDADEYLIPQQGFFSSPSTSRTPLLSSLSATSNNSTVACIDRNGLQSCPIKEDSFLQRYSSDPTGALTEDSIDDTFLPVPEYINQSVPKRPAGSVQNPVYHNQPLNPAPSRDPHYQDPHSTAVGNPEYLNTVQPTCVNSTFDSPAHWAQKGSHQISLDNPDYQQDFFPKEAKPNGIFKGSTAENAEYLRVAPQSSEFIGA
Put plainly: EGFR T790M L858R biochemical assay (Caliper mobility shift). The conditions noted are these: 5 μM ATP; apparent Ki (Morrison fit) converted by Cheng-Prusoff, Km of ATP 1.3 μM. In a few lines:
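Caliper mobility-shift read-out, electrophoretic separation of substrate from product, after a 30-minute kinase reaction at 22 °C. EDTA at 80 mM terminates each reaction.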

For another assay, the target named is T2, EGFR del746-750 T790M (Homo sapiens, UniProt P00533, DEL746-750/T790M).
T2 construct: purchased Carna Biosciences 08-528
T2 sequence (P00533 with tags, fused parts or gaps DEL746-750/T790M limits assumed): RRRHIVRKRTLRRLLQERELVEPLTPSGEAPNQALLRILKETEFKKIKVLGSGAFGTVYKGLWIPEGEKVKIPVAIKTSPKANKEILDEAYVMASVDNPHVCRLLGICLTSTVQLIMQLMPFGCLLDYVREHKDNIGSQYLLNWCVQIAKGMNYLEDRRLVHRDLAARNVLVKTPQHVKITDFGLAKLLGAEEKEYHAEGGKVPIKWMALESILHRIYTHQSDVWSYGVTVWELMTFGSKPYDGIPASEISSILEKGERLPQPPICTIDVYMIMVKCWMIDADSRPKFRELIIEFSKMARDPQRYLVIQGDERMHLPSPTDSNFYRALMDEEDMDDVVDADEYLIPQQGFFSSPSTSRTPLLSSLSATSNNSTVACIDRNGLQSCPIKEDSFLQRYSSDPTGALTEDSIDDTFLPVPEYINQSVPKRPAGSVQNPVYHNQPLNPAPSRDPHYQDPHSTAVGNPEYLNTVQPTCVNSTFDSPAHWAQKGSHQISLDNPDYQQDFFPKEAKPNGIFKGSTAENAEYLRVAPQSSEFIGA
In words: EGFR del746-750 T790M biochemical assay (Caliper mobility shift). The conditions noted are these: 5 μM ATP; apparent Ki (Morrison fit) converted by Cheng-Prusoff, Km of ATP 2.1 μM; read-out: EGFR(T790M/d746-750) Ki. On the procedure: The exemplified compounds described herein were tested according to the assay below. The enzyme data reported in Tables 4-5 is generally a representative of multiple experiments.
Reactions proceed for 30 minutes at room temperature (22° C.) and are terminated with 80 mM 2,2′,2″,2″′-(ethane-1,2-diyldinitrilo)tetraacetic acid (EDTA). Product is detected using the Caliper mobility shift detection method where product and substrate are electrophoretically separated and measured.

In assay [2] the target is T3, phosphor-EGFR in H1975(L585R/T790M) mutant EGFR expressing cells (Homo sapiens, UniProt P00533, L858R/T790M).
T3 construct: host or cells: NCI-H1975
T3 sequence (P00533 25-1210 T790M/L858R): as the sequence (P00533 25-1210 T790M/L858R) above
Put plainly: H1975 pEGFR MSD cellular assay. Format: cell-based. Particulars: NCI-H1975 cells, serum starved, 1 hour compound incubation, pEGFR Tyr1068 MSD; read-out: HI975 pEGFR EC50. In a few lines:
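Phospho-EGFR read by MSD electrochemiluminescence: capture with anti-pEGFR antibody (overnight, 4° C), detection with SULFO-TAG anti-total EGFR (1 hour, room temperature). Before lysis, H1975 cells starved of serum overnight got compound for 1 hour at 37° C, 0.5% DMSO final. EC50 via four-parameter logistic regression of percent inhibition.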

As to `CC(C)n1nc(N2CC[C@@H](O)C2)c2cnc(Nc3ccnc(N4C[C@@H](F)[C@@H](O)C(C)(C)C4)n3)cc21` (racemic) [Example 148, cis-5-Fluoro-1-(4-(3-((R)-3-hydroxypyrrolidin-1-yl)-1-isopropyl-1H-pyrazolo[4,3-c]pyridin-6-ylamino)pyrimidin-2-yl)-3,3-dimethylpiperidin-4-ol], the EC50 in assay [1] came to 225 nM; in assay [2] it was 22.3 nM. Further, the Ki at EGFR T790M L858R is 1.8 nM; at EGFR del746-750 T790M, 2.5 nM.

For the compound `CC(C)n1nc(N2CC(N)CC2=O)c2cnc(Nc3ccnc(N4CCC(C)(O)CC4)n3)cc21` (centres unmarked) [Example 86, 4-Amino-1-(6-(2-(4-hydroxy-4-methylpiperidin-1-yl)pyrimidin-4-ylamino)-1-isopropyl-1H-pyrazolo[4,3-c]pyridin-3-yl)pyrrolidin-2-one], the EC50 in assay [1] was > 10000 nM; in assay [2], 1940 nM. Moreover, the figures for the Ki on EGFR T790M L858R and at EGFR del746-750 T790M were 13.3 nM and 29.1 nM, respectively.

As for `CCC(C)n1nc(N2CC3(COC3)C2)c2cnc(Nc3ccnc(N4C[C@@H](F)[C@@H](O)C(C)(C)C4)n3)cc21` (mixture of isomers) [Example 147, (4SR,5RS)-1-(4-((1-(sec-Butyl)-3-(2-oxa-6-azaspiro[3.3]heptan-6-yl)-1H-pyrazolo[4,3-c]pyridin-6-yl)amino)pyrimidin-2-yl)-5-fluoro-3,3-dimethylpiperidin-4-ol], the results for the EC50 in assay [1] and in assay [2] were 227 nM and 15.8 nM, respectively. For the same compound, the results for the Ki on EGFR T790M L858R and on EGFR del746-750 T790M were 2.4 nM and 3.9 nM, respectively.

As to `C[C@@H](n1nc(N2CC[C@@H](O)C2)c2cnc(Nc3ccnc(N4CC[C@H](O)[C@H](F)C4)n3)cc21)C(F)(F)F` (relative stereo) [Example 142, (±)-cis-3-Fluoro-1-(4-(3-((R)-3-hydroxypyrrolidin-1-yl)-1-((R*)-1,1,1-trifluoropropan-2-yl)-1H-pyrazolo[4,3-c]pyridin-6-ylamino)pyrimidin-2-yl)piperidin-4-ol], the EC50 in assay [1] is 1280 nM; in assay [2], 110 nM. The Ki at EGFR T790M L858R is 1.6 nM; at EGFR del746-750 T790M, 3.1 nM.

For `CC(C)n1nc(N2CC(C#N)CC2=O)c2cnc(Nc3ccnc(N4CCC(C)(O)CC4)n3)cc21` (centres unmarked) [Example 137, 1-(6-(2-(4-Hydroxy-4-methylpiperidin-1-yl)pyrimidin-4-ylamino)-1-isopropyl-1H-pyrazolo[4,3-c]pyridin-3-yl)-5-oxopyrrolidine-3-carbonitrile], the figures for the concentration for a half-maximal effect (EC50) in assay [1] and in assay [2] were 1100 nM and 715 nM, respectively. Moreover, the Ki is 10.1 nM on EGFR T790M L858R and 27 nM on EGFR del746-750 T790M.

For `CC(C)n1nc(N2CCCC2=O)c2cnc(Nc3ccnc(-c4cnn(S(=O)(=O)C5CC5)c4)n3)cc21` [Example 106, 1-(6-(2-(1-(Cyclopropylsulfonyl)-1H-pyrazol-4-yl)pyrimidin-4-ylamino)-1-isopropyl-1H-pyrazolo[4,3-c]pyridin-3-yl)pyrrolidin-2-one], the EC50 was 232 nM in assay [1] and 57.8 nM in assay [2]. Besides, the Ki was found to be 2.1 nM on EGFR T790M L858R and 1.6 nM on EGFR del746-750 T790M.

As for `CC(C)n1nc(N2CCC3(CCNC3=O)C2)c2cnc(Nc3ccnc(-c4cnn(S(=O)(=O)C5CC5)c4)n3)cc21` (centres unmarked) [Example 112, 7-(6-((2-(1-(Cyclopropylsulfonyl)-1H-pyrazol-4-yl)pyrimidin-4-yl)amino)-1-isopropyl-1H-pyrazolo[4,3-c]pyridin-3-yl)-2,7-diazaspiro[4.4]nonan-1-one], the EC50 in assay [1] came to 740 nM; in assay [2], 62.6 nM. Also, the results for the Ki at EGFR T790M L858R and on EGFR del746-750 T790M were 1.1 nM and 1 nM, respectively.

As to `CC(C)n1nc(N2CC3(C2)C[S+]([O-])C3)c2cnc(Nc3ccnc(N4CCC(C)(O)CC4)n3)cc21` [Example 138, 6-(6-((2-(4-Hydroxy-4-methylpiperidin-1-yl)pyrimidin-4-yl)amino)-1-isopropyl-1H-pyrazolo[4,3-c]pyridin-3-yl)-2-thia-6-azaspiro[3.3]heptane 2-oxide], the values for the EC50 in assay [1] and in assay [2] were 3910 nM and 1410 nM, respectively. Further, the Ki at EGFR T790M L858R was 4.6 nM; on EGFR del746-750 T790M, 19.6 nM.

Take `CC(C)n1nc(N2CC(C(C)(C)C(N)=O)C2)c2cnc(Nc3ccnc(N4CCC(C)(O)CC4)n3)cc21` [Example 84, 2-(1-(6-(2-(4-Hydroxy-4-methylpiperidin-1-yl)pyrimidin-4-ylamino)-1-isopropyl-1H-pyrazolo[4,3-c]pyridin-3-yl)azetidin-3-yl)-2-methylpropanamide]: the EC50 is > 10000 nM in assay [1] and 2140 nM in assay [2]. Besides, the results for the Ki at EGFR T790M L858R and on EGFR del746-750 T790M were 6.7 nM and 20.5 nM, respectively.

As for `CCC(C)n1nc(N2CC[C@@H](O)C2)c2cnc(Nc3ccnc(N4CCC(C)(O)CC4)n3)cc21` (stereo partly drawn) [Example 203, 1-(4-((1-(sec-Butyl)-3-((R)-3-hydroxypyrrolidin-1-yl)-1H-pyrazolo[4,3-c]pyridin-6-yl)amino)pyrimidin-2-yl)-4-methylpiperidin-4-ol], the EC50 in assay [1] amounted to 619 nM; in assay [2] it was 77 nM. The values for the Ki on EGFR T790M L858R and on EGFR del746-750 T790M were 1.5 nM and 2.1 nM, respectively.

On to `CC(C)n1nc(N2CC3(COC3)C2)c2cnc(Nc3ccnc(N4CCC(O)C(F)C4)n3)cc21` (racemic) [Example 21, (±)-cis-3-Fluoro-1-{4-[1-isopropyl-3-(2-oxa-6-azaspiro[3.3]hept-6-yl)-1H-pyrazolo[4,3-c]pyridin-6-ylamino]-pyrimidin-2-yl}piperidin-4-ol], for which the EC50 in assay [1] turned out to be 390 nM; in assay [2], 36.1 nM. In addition, the Ki worked out at 1.2 nM at EGFR T790M L858R and 3 nM on EGFR del746-750 T790M.

Regarding `CC(C)n1nc(N2CCO[C@H](CO)C2)c2cnc(Nc3ccnc(N4CC[C@H](O)[C@H](F)C4)n3)cc21` [Example 132, cis-3-Fluoro-1-(4-(3-((S)-2-(hydroxymethyl)morpholino)-1-isopropyl-1H-pyrazolo[4,3-c]pyridin-6-ylamino)pyrimidin-2-yl)piperidin-4-ol], the values for the EC50 in assay [1] and in assay [2] were > 10000 nM and 1430 nM, respectively. Besides, the Ki at EGFR T790M L858R came out at 4.9 nM; at EGFR del746-750 T790M it was 14.6 nM.

Turning to `CC(C)n1nc(N2CC(O)(CO)C2)c2cnc(Nc3ccnc(-c4cnn(S(=O)(=O)C5CC5)c4)n3)cc21` [Example 124, 1-(6-(2-(1-(Cyclopropylsulfonyl)-1H-pyrazol-4-yl)pyrimidin-4-ylamino)-1-isopropyl-1H-pyrazolo[4,3-c]pyridin-3-yl)-3-(hydroxymethyl)azetidin-3-ol], the results for the EC50 in assay [1] and in assay [2] were 660 nM and 248 nM, respectively. Moreover, the Ki at EGFR T790M L858R and at EGFR del746-750 T790M was 0.7 nM throughout.

Consider `CC(C)n1nc(NCCC2OCC(N)CO2)c2cnc(Nc3ccnc(N4CCC(C)(O)CC4)n3)cc21` (centres unmarked) [Example 139, 1-(4-(3-(2-(5-Amino-1,3-dioxan-2-yl)ethylamino)-1-isopropyl-1H-pyrazol[4,3-c]pyridin-6-ylamino)pyrimidin-2-yl)-4-methylpiperidin-4-ol], for which the EC50 in assay [1] was > 10000 nM; in assay [2], 6070 nM. Also, the Ki was 7.1 nM at EGFR T790M L858R and 18.3 nM at EGFR del746-750 T790M.

Take `CC(C)n1nc(N2CCN(C)C2=O)c2cnc(Nc3ccnc(-c4cnn(S(=O)(=O)C5CC5)c4)n3)cc21` [Example 83, 1-(6-(2-(1-(Cyclopropylsulfonyl)-1H-pyrazol-4-yl)pyrimidin-4-ylamino)-1-isopropyl-1H-pyrazolo[4,3-c]pyridin-3-yl)-3-methylimidazolidin-2-one]: the EC50 in assay [1] was > 10000 nM; in assay [2], 21.6 nM. The Ki worked out at 1.3 nM on EGFR T790M L858R and 1.2 nM at EGFR del746-750 T790M.

Turning to `CC1CN(c2nn(C(C)C)c3cc(Nc4ccnc(N5CC[C@H](O)[C@H](F)C5)n4)ncc23)C(=O)N1` (relative stereo) [Example 127, 1-(6-(2-(cis-3-Fluoro-4-hydroxypiperidin-1-yl)pyrimidin-4-ylamino)-1-isopropyl-1H-pyrazolo[4,3-c]pyridin-3-yl)-4-methylimidazolidin-2-one], the values for the EC50 in assay [1] and in assay [2] were 1380 nM and 466 nM, respectively. The Ki at EGFR T790M L858R came to 2.5 nM; on EGFR del746-750 T790M, 6 nM.

Regarding `CC(C)n1nc(NC(C)(C)C#N)c2cnc(Nc3ccnc(N4CC[C@H](O)[C@H](F)C4)n3)cc21` (racemic) [Example 183, (±)-2-(6-(2-(cis-3-Fluoro-4-hydroxypiperidin-1-yl)pyrimidin-4-ylamino)-1-isopropyl-1H-pyrazolo[4,3-c]pyridin-3-ylamino)-2-methylpropanenitrile], the values for the EC50 in assay [1] and in assay [2] were 8270 nM and 1650 nM, respectively. Besides, the Ki at EGFR T790M L858R is 34.7 nM; at EGFR del746-750 T790M, 76.7 nM.

The record behind these values is patent US9951064B2, “Azaindazole compounds as inhibitors of T790M containing EGFR mutants” (Genentech, Inc., priority 2013, dated 2018).
